Test results reported in patent EP0352000A2, “Retroviral protease binding peptides” (SMITHKLINE BECKMAN CORPORATION, priority 1988, dated 1990).
Where a SMILES comes first, the peptide text is derived from it. [ ]: non-standard residue; d: D form. The star is where a group is joined. Sta = CC(C)C[C@H](N)[C@@H](O)CC(=O)O; Isovaleryl = CC(C)CC(=O)*

Legend:
[1] = system: retroviral proteases associated with bovine leukemia virus; details: cited from earlier work
[2] = molecular target: retroviral proteases associated with human T-cell leukemia virus (Human T-cell leukemia virus 1, UniProt P10274); details: cited from earlier work
Chain of retroviral proteases associated with human T-cell leukemia virus (P10274 450-574): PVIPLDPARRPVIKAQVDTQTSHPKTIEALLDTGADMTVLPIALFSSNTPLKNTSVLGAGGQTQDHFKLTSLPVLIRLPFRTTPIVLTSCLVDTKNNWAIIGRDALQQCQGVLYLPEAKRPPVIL

[3] = molecular target: retroviral proteases associated with Moloney murine leukemia virus (Moloney murine leukemia virus, UniProt P03355); details: cited from earlier work
Chain of retroviral proteases associated with Moloney murine leukemia virus (P03355 535-659): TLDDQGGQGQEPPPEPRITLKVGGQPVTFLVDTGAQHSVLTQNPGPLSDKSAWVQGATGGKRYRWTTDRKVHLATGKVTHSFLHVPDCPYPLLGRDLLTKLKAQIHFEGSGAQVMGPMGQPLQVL

[4] = system: HIV protease; details: substrate of HIV protease; MENDT buffer pH 6.0, 37°C
Description: The enzyme used to assay the peptide of this invention was produced in this manner and purified from the cell pellet as follows. The E. coli cell pellet was resuspended in a buffer consisting of 50 mM Tris-­HCl, pH 7.5; 1.0 mM each DTT, EDTA and PMSF (phenylmethylsulfonyl fluoride). The cells were lysed by sonication and insoluble material was removed by centrifugation at 15,000 x g av, for 15 min. The clarified supernatant was then brought to 40% of saturation with ammonium sulfate This suspension was stirred at room temperature for 30 min. and then centrifuged as above. […] The effluent of the column was monitored at 280 nm and 1 min. fractions collected.
Initial rate data for oligopeptides were determined at pH 6.0, 37°C. […] Samples were centrifuged at 17,000 rpm for 5 min., and the peptide substrates and products were separated and quantified (by peak integration) by reverse phase HPLC. Initial rates were determined as (mM peptide product formed)/min based on the percentage of conversion of substrate to product for a given concentration of substrate. […] Kinetic constants (Michaelis constants, maximal velocities) were determined by fitting initial rate data to the Michaelis-Menten equation (v = Vmax(S)/(Km + (S))) using the Fortran program of Cleland (W. W. Cleland, Adv. Enzymol. 29, 1, (1967)). […]

Row | Compound | inhibitor of the retroviral protease [1] | inhibitor of the retroviral protease [2] | inhibitor of the retroviral protease [3] | Km [4] [mM]
1 | CC(C)CC(=O)N[C@H](C(=O)N[C@H](C(=O)N[C@@H](CC(C)C)[C@@H](O)CC(=O)N[C@@H](C)C(=O)N[C@@H](CC(C)C)[C@@H](O)CC(=O)O)C(C)C)C(C)C [pepstatin] (Isovaleryl-VV[Sta]A[Sta]-OH) | weak inhibitor | weak inhibitor | weak inhibitor | 
2 | N-acetyl-L-arginyl-L-alanyl-L-seryl-L-glutaminyl-L-asparaginyl-L-tyrosyl-L-prolyl-L-valyl-L-valinamide |  |  |  | 7
